Test results from patent EP4796530A1 (Biocells (Beijing) Biotech Co., Ltd., priority 2023, dated 2025).
Where two headings read alike, the source gives them in different places.

Key:
NLRP3 [1] = molecular target: T1, NLRP3 (Mus musculus, UniProt Q8R4B8); assay: Inhibition of canonical NLRP3 activation (LPS+ATP/Nig) in J774A.1 cells, IL-1β release by ELISA, single concentration; assay type: cell-based; set-up: The mouse macrophage cell line J774A.1 was used, and LPS was used as the first signal; host or cells: J774A.1 mouse monocyte-macrophage cell line
T1 sequence (Q8R4B8 whole entry): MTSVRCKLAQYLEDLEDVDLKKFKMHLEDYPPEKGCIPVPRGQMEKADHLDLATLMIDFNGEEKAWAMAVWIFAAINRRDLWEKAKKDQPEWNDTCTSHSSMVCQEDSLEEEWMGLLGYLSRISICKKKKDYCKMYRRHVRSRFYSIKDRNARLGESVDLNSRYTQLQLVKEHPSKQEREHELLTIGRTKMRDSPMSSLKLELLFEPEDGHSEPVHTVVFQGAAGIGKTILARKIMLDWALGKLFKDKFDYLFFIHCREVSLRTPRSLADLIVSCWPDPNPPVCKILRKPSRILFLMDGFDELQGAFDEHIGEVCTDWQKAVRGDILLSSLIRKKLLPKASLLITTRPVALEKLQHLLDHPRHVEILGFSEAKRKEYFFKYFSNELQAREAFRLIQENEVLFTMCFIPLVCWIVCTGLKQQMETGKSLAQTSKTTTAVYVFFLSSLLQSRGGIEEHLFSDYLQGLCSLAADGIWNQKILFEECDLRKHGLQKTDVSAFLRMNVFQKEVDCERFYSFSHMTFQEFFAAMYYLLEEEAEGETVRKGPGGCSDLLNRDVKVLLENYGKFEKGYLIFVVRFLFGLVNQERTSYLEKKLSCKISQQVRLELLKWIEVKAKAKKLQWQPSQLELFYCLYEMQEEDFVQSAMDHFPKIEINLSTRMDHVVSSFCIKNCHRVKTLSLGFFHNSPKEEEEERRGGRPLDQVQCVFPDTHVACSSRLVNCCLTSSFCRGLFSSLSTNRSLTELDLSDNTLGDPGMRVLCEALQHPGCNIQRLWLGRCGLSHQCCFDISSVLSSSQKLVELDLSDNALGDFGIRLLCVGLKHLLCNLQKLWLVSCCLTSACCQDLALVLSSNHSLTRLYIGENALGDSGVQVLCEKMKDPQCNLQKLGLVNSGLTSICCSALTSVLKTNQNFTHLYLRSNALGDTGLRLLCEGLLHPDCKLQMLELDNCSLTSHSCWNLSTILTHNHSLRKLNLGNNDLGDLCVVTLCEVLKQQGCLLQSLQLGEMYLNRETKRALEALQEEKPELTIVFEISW
Method: J774A.1 cells were plated in a 48-well plate at a density of 1.0×10^6 cells/mL, with 300 µL per well. Subsequently, NLRP3 was activated using LPS+5 mM ATP (adenosine triphosphate) or 10 µM Nig (nigericin). […] ATP was purchased from Sigma, Cat. No.: L2654. Nig was purchased from Shanghai Yuanye Bio-Technology Co., Ltd., Cat. No.: S45490.
Experimental groups: a negative control group, an LPS-alone incubation control group, an LPS+ATP or +Nig positive control group, and an example compound experimental group.
After the plated J774A.1 cells adhering to the plate, the culture medium was replaced. For all the groups except the negative control group, the culture medium was completely replaced with cell culture medium containing 1 µg/mL LPS. The negative control group received cell culture medium. Then, all the groups were incubated overnight. 18 h later, the culture medium was replaced again. The culture medium of the example compound experimental group was completely replaced with cell culture medium containing the compounds; while the negative control group, the LPS-alone incubation control group, and the LPS+ATP/Nig positive control group received cell culture medium. 1 h later, the culture mediums of the LPS+ATP/Nig positive control group and the example compound experimental group were completely replaced with cell culture medium containing 5 mM ATP or 10 µM Nig. 1 h later, the cell supernatants were collected for IL-1β detection.
Therefore, the relative change in the amount of IL-1β release may directly reflect NLRP3 inhibitory effect.

NLRP3 [2] = molecular target: T1, NLRP3; assay: Inhibition of APOE peptide-induced NLRP3 activation in J774A.1 cells, IL-1β release; assay type: cell-based; set-up: The mouse macrophage cell line J774A.1 was used, and LPS was used as the first signal; host or cells: J774A.1 mouse monocyte-macrophage cell line; details: J774.A1, 10 µM compound, 30 µg/mL APOE peptide
Method: J774A.1 cells were plated in a 48-well plate at a density of 1.0×10^6 cells/mL, with 300 µL per well. Subsequently, NLRP3 was activated by APOE peptide. The cell culture medium comprises: DMEM (brand: Gibco, Cat. No.: C12430500) + 10% fetal bovine serum (brand: Gibco, Cat. No.: 10099-141) + 1% sodium pyruvate (brand: Gibco, Cat. No.: 11360-070) + 1% penicillin-streptomycin solution (brand: Solarbio, Cat. No.: P1400). The J774A.1 mouse monocyte-macrophage cell line was purchased from the Cell Resource Center of the Institute of Basic Medical Sciences of Chinese Academy of Medical Sciences (Resource No. 1101MOU-PUMC000222). APOE2/3 peptide 1-151 was obtained through recombinant protein expression and purification by Biocells (Beijing) Biotech Co., Ltd. The procedures were as follows: the sequence (SEQ ID NO: 1) shown below was inserted into the pET-28A plasmid and transformed into BL-21(DE3) expression strain; the expression of target protein was induced with IPTG at a low temperature; after collecting the bacteria via centrifugation, ultrasonic disruption was performed; and after centrifugation, the supernatant was purified by nickel ion affinity chromatography (AKTA pure), and then the product was concentrated by ultrafiltration and identified by BCA+protein electrophoresis. Sequence: [formula]
Experimental groups: a negative control group, an APOE treatment control group, and an example compound experimental group.
After the plated J774A.1 cells adhering to the plate, the culture medium was replaced. The culture medium of the APOE treatment control group was replaced with cell culture medium containing 30 µg/mL APOE peptide, the culture medium of the example compound experimental group was replaced with culture medium containing 30 µg/mL APOE peptide combined with the compounds, and the negative control group received cell culture medium. Then, all the groups were incubated overnight. 18 h later, the cell supernatants were collected for IL-1β detection.
Activation of NLRP3 by APOE peptide will result in release of mature IL-1β, and the release can be inhibited by NLRP3 inhibitors. Therefore, the relative change in the amount of IL-1β release may directly reflect NLRP3 inhibitory effect.
In this experimental example, effective inhibition refers to a reduction of 70% or more in the release amount, compared with the release amount of the positive control minus the negative control.

[3] = Mouse pharmacokinetics after intravenous administration (plasma and brain, LC-MS); assay type: in vivo; details: C57 mice, intravenous 5 mg/kg
Method: C57 mice were administered intravenously, at a dosage concentration of 5 mg/kg in each group. Retro-orbital blood collection was performed on the mice at 1 min, 30 min, 1 h, and 2 h post-dosing. The collected blood was centrifuged at 3000 rpm for 10 min at 4 °C to obtain plasma. Acetonitrile was added at a 1:3 volume ratio of plasma: acetonitrile to precipitate proteins. After centrifugation, the supernatant was collected and filtered. The concentration of the compound was detected using LC-MS (Agilent 1260-G6125, SIM mode). In addition, 2 h after drug injection, the mice were subjected to cardiac perfusion and then their brains were harvested. Following tissue homogenization and centrifugation, the supernatant was collected. Acetonitrile was added at a 1:3 volume ratio of supernatant: acetonitrile to precipitate proteins. After centrifugation, the supernatant was collected and filtered. The concentration of the compound was detected using LC-MS (Agilent 1260-G6125, SIM mode).
Experimental groups: a vehicle control group, and a dosing group.

[4] = J774.A1, 1 µM compound, LPS + 5 mM ATP or 10 µM Nig, compared with the positive control, read-out: inhibition of IL-1β release

Structure (SMILES) | inhibition at 1 µM (NLRP3 [1]; [4]) [%] | inhibition at 10 µM (NLRP3 [2]) [%] | also measured
CC(C)Oc1ccc(S(=O)(=O)NC(=O)Nc2c3c(cc4c2CCC4)CCC3)cc1CN(C)C [Example 15, 3-((dimethylamino)methyl)-N-((1,2,3,5,6,7-hexahydro-s-indacen-4-yl)carbamoyl)-4-isopropoxybenzenesulfonamide] | > 80 | – | –
CN(C)Cc1cc(S(=O)(=O)NC(=O)Nc2c3c(cc4c2CCC4)CCC3)ccc1OCc1ccccc1 [Example 4] | – | – | inhibition at 1 µM (NLRP3 [1]; J774.A1, read-out: inhibition of IL-1β release, 1 µM compound, LPS + 5 mM ATP or 10 µM Nig, compared with the positive control): > 80%
COc1cc(F)c(S(=O)(=O)NC(=O)Nc2c3c(cc4c2CCC4)CCC3)cc1CN(C)C [Example 20, 5-((dimethylamino)methyl)-2-fluoro-N-((1,2,3,5,6,7-hexahydro-s-indacen-4-yl)carbamoyl)-4-methoxybenzenesulfonamide] | > 80 | ≥ 70 | –
CCN(CC)Cc1cc(S(=O)(=O)NC(=O)Nc2c3c(cc4c2CCC4)CCC3)ccc1OC [Example 13] | – | – | inhibition of IL-1β release (NLRP3 [1]; 1 µM compound, LPS + 5 mM ATP or 10 µM Nig, compared with the positive control): no inhibitory effect
CN(C)Cc1ccc(Cl)c(S(=O)(=O)NC(=O)Nc2c3c(cc4c2CCC4)CCC3)c1 [Example 10, 2-chloro-5-((dimethylamino)methyl)-N-((1,2,3,5,6,7-hexahydro-s-indacen-4-yl)carbamoyl)benzenesulfonamide] | > 80 | – | –
COc1c(F)cc(S(=O)(=O)NC(=O)Nc2c3c(cc4c2CCC4)CCC3)cc1CN(C)C [Example 16, 3-((dimethylamino)methyl)-5-fluoro-N-((1,2,3,5,6,7-hexahydro-s-indacen-4-yl)carbamoyl)-4-methoxybenzenesulfonamide] | 20 to 80 | – | –
CN(C)Cc1cccc(S(=O)(=O)NC(=O)Nc2c3c(cc4c2CCC4)CCC3)c1F [Example 24, 3-((dimethylamino)methyl)-2-fluoro-N-((1,2,3,5,6,7-hexahydro-s-indacen-4-yl)carbamoyl)benzenesulfonamide] | > 80 | ≥ 70 | –
CN(C)Cc1ccc(F)c(S(=O)(=O)NC(=O)Nc2c3c(cc4c2CCC4)CCC3)c1F [Example 25, 3-((dimethylamino)methyl)-2,6-difluoro-N-((1,2,3,5,6,7-hexahydro-s-indacen-4-yl)carbamoyl)benzenesulfonamide] | > 80 | ≥ 70 | –
CN1CCc2ccc(S(=O)(=O)NC(=O)Nc3c4c(cc5c3CCC5)CCC4)cc2C1 [Example 29, N-((1,2,3,5,6,7-hexahydro-s-indacen-4-yl)carbamoyl)-2-methyl-1,2,3,4-tetrahydroisoquinoline-7-sulfonamide] | – | – | concentration at 120 min ([3]; brain after cardiac perfusion, read-out: brain drug concentration at 120 min): 0.197 µg/mL; half-life ([3]; plasma): 1.65 h; AUC ([3]; plasma, read-out: area under the curve (AUC) from 1 to 120 min): 14.9 µg·h/mL
CN(C)Cc1cc(S(=O)(=O)NC(=O)Nc2c3c(cc4c2CCC4)CCC3)ccc1Cl [Example 8, 4-chloro-3-((dimethylamino)methyl)-N-((1,2,3,5,6,7-hexahydro-s-indacen-4-yl)carbamoyl)benzenesulfonamide] | 20 to 80 | – | –
CN(C)Cc1cccc(S(=O)(=O)NC(=O)Nc2c3c(cc4c2CCC4)CCC3)c1[N+](=O)[O-] [Example 18, 3-((dimethylamino)methyl)-N-((1,2,3,5,6,7-hexahydro-s-indacen-4-yl)carbamoyl)-2-nitrobenzenesulfonamide] | > 80 | ≥ 70 | –
CN(C)Cc1cc(S(=O)(=O)NC(=O)Nc2c3c(cc4c2CCC4)CCC3)ccc1N [Example 7, 4-amino-3-((dimethylamino)methyl)-N-((1,2,3,5,6,7-hexahydro-s-indacen-4-yl)carbamoyl)benzenesulfonamide] | > 80 | – | –
CN(C)Cc1ccc([N+](=O)[O-])c(S(=O)(=O)NC(=O)Nc2c3c(cc4c2CCC4)CCC3)c1 [Example 11, 5-((dimethylamino)methyl)-N-((1,2,3,5,6,7-hexahydro-s-indacen-4-yl)carbamoyl)-2-nitrobenzenesulfonamide] | > 80 | – | –
CN(C)Cc1ccc(N)c(S(=O)(=O)NC(=O)Nc2c3c(cc4c2CCC4)CCC3)c1 [Example 12, 2-amino-5-((dimethylamino)methyl)-N-((1,2,3,5,6,7-hexahydro-s-indacen-4-yl)carbamoyl)benzenesulfonamide] | 20 to 80 | – | –
CN(C)Cc1c(F)ccc(S(=O)(=O)NC(=O)Nc2c3c(cc4c2CCC4)CCC3)c1F [Example 23, 3-((dimethylamino)methyl)-2,4-difluoro-N-((1,2,3,5,6,7-hexahydro-s-indacen-4-yl)carbamoyl)benzenesulfonamide] | > 80 | ≥ 70 | –
COc1ccc(S(=O)(=O)NC(=O)Nc2c3c(cc4c2CCC4)CCC3)c(Cl)c1CN(C)C [Example 28, 2-chloro-3-((dimethylamino)methyl)-N-((1,2,3,5,6,7-hexahydro-s-indacen-4-yl)carbamoyl)-4-methoxybenzenesulfonamide] | > 80 | – | –
CCOc1ccc(S(=O)(=O)NC(=O)Nc2c3c(cc4c2CCC4)CCC3)cc1CN(C)C [Example 14, 3-((dimethylamino)methyl)-4-ethoxy-N-((1,2,3,5,6,7-hexahydro-s-indacen-4-yl)carbamoyl)benzenesulfonamide] | > 80 | ≥ 70 | –
CN(C)Cc1ccc(F)c(S(=O)(=O)NC(=O)Nc2c3c(cc4c2CCC4)CCC3)c1 [Example 2, 5-((dimethylamino)methyl)-2-fluoro-N-((1,2,3,5,6,7-hexahydro-s-indacen-4-yl)carbamoyl)benzenesulfonamide] | > 80 | – | –
CN(C)Cc1cc(S(=O)(=O)NC(=O)Nc2c3c(cc4c2CCC4)CCC3)ccc1OC(F)(F)F [Example 9, 3-((dimethylamino)methyl)-N-((1,2,3,5,6,7-hexahydro-s-indacen-4-yl)carbamoyl)-4-(trifluoromethoxy)benzenesulfonamide] | 20 to 80 | – | –
CN(C)Cc1cc(S(=O)(=O)NC(=O)Nc2c3c(cc4c2CCC4)CCC3)ccc1F [Example 6, 3-((dimethylamino)methyl)-4-fluoro-N-((1,2,3,5,6,7-hexahydro-s-indacen-4-yl)carbamoyl)benzenesulfonamide] | > 80 | – | –
